Assay results: patent US20230312605A1, “PYRROLO[2,1-F][1,2,4]TRIAZINES AND PREPARATION AND USES THEREOF” (BioSplice Therapeutics, Inc., priority 2021, published 2023)

molecular target: recombinant DYRK1A kinase (Homo sapiens (Human), UniProt Q13627); assay: DYRK1A kinase assay (Ser/Thr 18 peptide Z-lyte FRET assay); format: biochemical; conditions: recombinant DYRK1A 0.25 µg/mL, ATP 15 µM, Ser/Thr peptide 18 4 µM, one hour at room temperature; table head prints EC50, method says IC50
Description: Representative compounds were screened using the assay procedure for DYRK1A kinase activity as described below.
Each compound was dissolved in DMSO as a 10 mM stock and used to prepare compound source plates. Serial dilution (1:3, 11-point dose-response curves from 10 µM to 0.00016 µM) and compound transfer was performed using the ECHO 550 (Labcyte, Sunnyvale, CA) into 1536-well black-walled round bottom plates (Corning).
The DYRK1A kinase assay was run using the Ser/Thr 18 peptide Z-lyte assay kit according to manufacturer’s instructions (Life Technologies- a Division of Thermo-Fisher). This is a non-radioactive assay using fluorescence resonance energy transfer (FRET) between coumarin and fluorescein to detect kinase activity which is represented as a ratio of coumarin emission/fluorescein emission.
Briefly, recombinant DYRK1A kinase, ATP and Ser/Thr peptide 18 were prepared in 1X Kinase buffer to final concentrations of 0.25 µg/mL, 15 µM, and 4 µM respectively. The mixture was allowed to incubate with the representative compounds for one hour at room temperature. All reactions were performed in duplicate. Unphosphorylated (“0% Control”) and phosphorylated (“100% control”) forms of Ser/Thr 18 served as control reactions. Additionally, an 11-point dose-response curve of Staurosporine (1uM top) was run to serve as a positive compound control.
After incubation, Development Reagent A was diluted in Development Buffer then added to the reaction and allowed to further incubate for one hour at room temperature. The plate was read at Ex 400 Em 455 to detect the coumarin signal and Ex 400 Em 520 to measure the signal (EnVision Multilabel Plate Reader, PerkinElmer).
The Emission ratio (Em) was calculated as a ratio of the coumarin (C) emission signal (at 445 nm)/Fluorescein (F) emission signal (at 520 nm). The percent phosphorylation was then calculated using the following formula: [1 — ((Em ratio X F100%)—C100%)/ ((C0%—C100%) + (Em ratio X (F100% - F0%)))]. Dose-response curves were generated, and inhibitory concentration (IC50) values were calculated using non-linear regression curve fit in the Dotmatics’ Studies Software (Bishops Stortford, UK).

Going from CO[C@H]1C[C@H](Nc2ncc3c(-c4ccc5nccnc5c4)ccn3n2)C1 [Compound 1376, N-(trans-3-Methoxycyclobutyl)-5-(quinoxalin-6-yl)pyrrolo[2,1-f][1,2,4] triazin-2-amine] to COCC(=O)N[C@]1(C)C[C@@H](Nc2ncc3c(-c4ccc5nccnc5c4)ccn3n2)C1 [Compound 1985, 2-Methoxy-N-(trans-1-methyl-3-((5-(quinoxalin-6-yl)pyrrolo[2,1-f][1,2,4]triazin-2-yl)amino)cyclobutyl)acetamide], the EC50 falls from 14 nM to 3 nM (4.7-fold).

Compared with Cc1nc2ccc(-c3ccn4nc(N[C@@H]5CN(C)C[C@H]5F)ncc34)nc2n1CC(F)F [Compound 1902], CO[C@H]1C[C@@H](Nc2ncc3c(-c4ccc5nc(C)n(CC(F)F)c5n4)ccn3n2)C1 [Compound 1091, 5-(3-(2,2-Difluoroethyl)-2-methyl-3H-imidazo[4,5-b]pyridin-5-yl)-N-(cis-3-methoxycyclobutyl)pyrrolo[2,1-f][1,2,4]triazin-2-amine] is 560-fold higher in EC50: 6 nM for the first, 3340 nM for the second. The first is the more potent here.

Cc1nc2ccc(-c3ccn4nc(N[C@H]5C[C@@H](CO)C5)ncc34)nc2n1CC(F)F [Compound 1834, (cis-3-((5-(3-(2,2-Difluoroethyl)-2-methyl-3H-imidazo[4,5-b]pyridin-5-yl)pyrrolo[2,1-f][1,2,4]triazin-2-yl)amino)cyclobutyl)methanol] and Cc1nc2ccc(-c3ccn4nc(NC5CC(F)(F)C5)ncc34)nc2n1CC(F)F [Compound 1088, N-(3,3-Difluorocyclobutyl)-5-(3-(2,2-difluoroethyl)-2-methyl-3H-imidazo [4,5-b]pyridin-5-yl)pyrrolo[2,1-f][1,2,4]triazin-2-amine] are within 1.5-fold of each other in EC50: 3 nM for the first, 4 nM for the second.

CC(C)OCCNc1ncc2c(-c3ccc4nccn4c3)ccn2n1 [Compound 11, 5-(Imidazo[1,2-a]pyridin-6-yl)-N-(2-isopropoxyethyl)pyrrolo[2,1-f][1,2,4] triazin-2-amine] and COCCNc1ncc2c(-c3ccc4nccn4c3)ccn2n1 [Compound 9, 5-(Imidazo[1,2-a]pyridin-6-yl)-N-(2-methoxyethyl)pyrrolo[2,1-f][1,2,4] triazin-2-amine] are within 1.5-fold of each other in EC50: 116 nM for the first, 81 nM for the second.

First: C[C@@H](Nc1ncc2c(-c3cnc4nccn4c3)ccn2n1)C1CC1 [Compound 231, (R)-N-(1-Cyclopropylethyl)-5-(imidazo[1,2-a]pyrimidin-6-yl)pyrrolo[2,1-f] [1,2,4]triazin-2-amine]
Second: CO[C@H]1C[C@H](Nc2ncc3c(-c4cnc5nccn5c4)ccn3n2)C1 [Compound 240, 5-(Imidazo[1,2-a]pyrimidin-6-yl)-N-(trans-3-methoxycyclobutyl)pyrrolo [2,1-f] [1,2,4]triazin-2-amine]
The EC50 of the first is 2-fold higher: 28 nM for the first, 14 nM for the second. The second is the more potent here.

First: Cc1nc2ccc(-c3ccn4nc(NC5CCN(C(=O)C6CC6)CC5)ncc34)nc2n1CC(F)F [Compound 1860]
Second: Cc1nc2ccc(-c3ccn4nc(N[C@H]5CC[C@H](C(=O)N(C)C)CC5)ncc34)nc2n1CC(F)F [Compound 1895, trans-4-((5-(3-(2,2-Difluoroethyl)-2-methyl-3H-imidazo[4,5-b]pyridin-5-yl)pyrrolo[2,1-f] [1,2,4]triazin-2-yl)amino)-N,N-dimethylcyclohexane-1-carboxamide]
The EC50 of the first is 1.7-fold higher: 5 nM for the first, 3 nM for the second. The second is the more potent here.

First: c1cnc2ncc(-c3ccn4nc(N[C@H]5CC[C@@H](N6CCOCC6)CC5)ncc34)cc2c1 [Compound 1551, N-(cis-4-Morpholinocyclohcxy1)-5-(1,8-naphthyridin-3-yl)pyrrolo[2,1-f] [1,2,4]triazin-2-amine]
Second: Cc1nc2ccc(-c3ccn4nc(N[C@H]5CC[C@@H](N6CCOCC6)CC5)ncc34)nc2n1CC(F)F [Compound 1125, 5-(3-(2,2-Difluoroethyl)-2-methyl-3H-imidazo[4,5-b]pyridin-5-yl)-N-(cis-4-morpholinocyclohexyl)pyrrolo[2,1-f][1,2,4]triazin-2-amine]
The EC50 of the first is 2.1-fold higher: 38 nM for the first, 18 nM for the second. The second is the more potent here.

CC(=O)N[C@H]1CC[C@H](Nc2ncc3c(-c4ccc5nc(C)n(CC(F)F)c5n4)ccn3n2)CC1 [Compound 1844, N-(trans-4-((5-(3-(2,2-Difluoroethyl)-2-methyl-3H-imidazo[4,5-b]pyridin-5-yl)pyrrolo[2,1-f][1,2,4]triazin-2-yl)amino)cyclohexyl)acetamide] and CCO[C@H]1CC[C@@H](Nc2ncc3c(-c4ccc5nc(C)n(CC(F)F)c5n4)ccn3n2)CC1 [Compound 1115, N-(cis-4-Ethoxycyclohexyl)-5-(3-(2,2-difluoroethyl)-2-methyl-3H-imidazo [4,5-b]pyridin-5-yl)pyrrolo[2,1-f][1,2,4]triazin-2-amine] are the same in EC50: 3 nM for the first, 3 nM for the second.

Compared with C[C@]1(O)CC[C@@H](Nc2ncc3c(-c4ccc5ncccc5c4)ccn3n2)CC1 [Compound 1323, (1s,4s)-1-Methyl-4-((5-(quinolin-6-yl)pyrrolo[2,1-f][1,2,4]triazin-2-yl)amino)cyclohexan-1-ol], C[C@]1(O)CC[C@H](Nc2ncc3c(-c4ccn5nccc5c4)ccn3n2)CC1 [Compound 1891, trans-1-Methyl-4-((5-(pyrazolo[1,5-a]pyridin-5-yl)pyrrolo[2,1-f][1,2,4]triazin-2-yl)amino)cyclohexan-1-ol] is 1.6-fold higher in EC50: 7 nM for the first, 11 nM for the second.

COCCO[C@H]1C[C@@H](Nc2ncc3c(-c4cnc5nccn5c4)ccn3n2)C1 [Compound 244, 5-(Imidazo[1,2-a]pyrimidin-6-yl)-N-(cis-3-(2-methoxyethoxy)cyclobutyl) pyrrolo[2,1-f] [1,2,4]triazin-2-amine] and FC(F)(F)O[C@H]1CC[C@@H](Nc2ncc3c(-c4cnc5nccn5c4)ccn3n2)CC1 [Compound 1780, 5-(Imidazo[1,2-a]pyrimidin-6-yl)-N-(cis-4-(trifluoromethoxy)cyclohexyl) pyrrolo[2,1-f][1,2,4]triazin-2-amine] are within 1.5-fold of each other in EC50: 5 nM for the first, 7 nM for the second.

Cc1nc2ccc(-c3ccn4nc(N[C@@H]5[C@@H]6COC[C@@H]65)ncc34)nc2n1CC(F)F [Compound 1914, N-((lR,5S,6s)-3-Oxabicyclo[3.1.0]hexan-6-yl)-5-(3-(2,2-difluoroethyl)-2-methyl-3H-imidazo[4,5-b]pyridin-5-yl)pyrrolo[2,1-f][1,2,4]triazin-2-amine] and Cc1nc2ccc(-c3ccn4nc(N[C@H]5CC[C@@H](OCC(F)F)CC5)ncc34)nc2n1CC(F)F [Compound 1838] are within 1.5-fold of each other in EC50: 5 nM for the first, 6 nM for the second.

Compared with Cc1nc2ncc(-c3ccn4nc(NC5CCC6(CC5)OCCO6)ncc34)cc2n1CC(F)F [Compound 1880, 5-(1-(2,2-Difluoroethyl)-2-methyl-1H-imidazo[4,5-b]pyridin-6-yl)-N-(1,4-dioxaspiro[4.5]decan-8-yl)pyrrolo[2,1-f][1,2,4]triazin-2-amine], Cc1nc2ncc(-c3ccn4nc(N[C@H]5CC[C@@H](OC(F)(F)F)CC5)ncc34)cc2n1CC(F)F [Compound 1786, 5-(1-(2,2-Difluoroethyl)-2-methyl-1H-imidazo[4,5-b]pyridin-6-yl)-N-(cis-4-(trifluoromethoxy)cyclohexyl)pyrrolo[2,1-f][1,2,4]triazin-2-amine] is 1.7-fold higher in EC50: 3 nM for the first, 5 nM for the second.

Going from Cc1nc2ncc(-c3ccn4nc(NCC(C)(C)F)ncc34)cc2n1CC(F)F [Compound 642, 5-(1-(2,2-difluoroethyl)-2-methyl-1H-imidazo[4,5-b]pyridin-6-yl)-N-(2-fluoro-2-methylpropyl)pyrrolo[2,1-f][1,2,4]triazin-2-amine] to Cc1nc2c(F)cc(-c3ccn4nc(NCC(C)(C)F)ncc34)cc2n1C(C)C [Compound 500], the EC50 rises from 4 nM to 44 nM (11-fold).

Compared with Cc1nc2ncc(-c3ccn4nc(NC5CCC(F)(F)CC5)ncc34)cc2n1Cc1nnc([C@@H](C)F)o1 [Compound 1915, (R)-N-(4,4-Difluorocyclohexyl)-5-(1-((5-(1-fluoroethyl)-1,3,4-oxadiazol-2-yl)methyl)-2-methyl-1H-imidazo[4,5-b]pyridin-6-yl)pyrrolo[2,1-f][1,2,4]triazin-2-amine], [2H]C([2H])([2H])O[C@H]1CC[C@@H](Nc2ncc3c(-c4cnc5nc(C)n(CC(F)F)c5c4)ccn3n2)CC1 [Compound 1876] is 4.5-fold lower in EC50: 9 nM for the first, 2 nM for the second.

Compared with CC(=O)N[C@]1(C)C[C@@H](Nc2ncc3c(-c4ccc5nc(C)n(CC(F)F)c5c4)ccn3n2)C1 [Compound 1920, N-((1r,3r)-3-((5-(1-(2,2-Difluoroethyl)-2-methyl-1H-benzo[d]imidazol-6-yl)pyrrolo[2,1-f] [1,2,4]triazin-2-yl)amino)-1-methylcyclobutyl)acetamide], C[C@]1(O)CC[C@H](Nc2ncc3c(-c4ccc5nnn(CC(F)F)c5c4)ccn3n2)CC1 [Compound 1890, trans-4-((5-(1-(2,2-Difluoroethyl)-1H-benzo[d][1,2,3]triazol-6-yl)pyrrolo [2,1-f][1,2,4]triazin-2-yl)amino)-1-methylcyclohexan-1-o1] is 14-fold higher in EC50: 1 nM for the first, 14 nM for the second.

In the case of Cc1nc2ncc(-c3ccn4nc(N[C@H]5CC[C@@H](OCC(F)F)CC5)ncc34)cc2n1CC(F)F [Compound 1877], the EC50 is reported as 2 nM.
